Assay results reported in patent US20210147571A1, “MONOCLONAL ANTIBODY TARGETING HUMAN TUMOR STEM CELLS AND USE THEREOF” (Suzhou Bojuhua Biomedical Technology Co. Ltd, priority 2017, published 2021).

B1: L11: humanized light chain version L11 (SEQ ID NO:47), higher humanized version based on L6 (protein)
light: DIVMTQTPFSNPVTLGQPASISCRSSKSLLHSNGITYLYWFLQKPGQSPQLLIYQMSNLASGVPDRFSGSGSGTDFTLKISRVEAEDVGVYYCAQNLELYTFGQGTKVEIKRTVAAPSVFIFPPSDEQLKSGTASVVCLLNNFYPREAKVQWKVDNALQSGNSQESVTEQDSKDSTYSLSSTLTLSKADYEKHKVYACEVTHQGLSSPVTKSFNRGEC
modifications: Humanized light chain L11

Columns and labels:
[1] = system: SPCA-1 transplanted tumor; assay: human lung cancer transplanted tumor treated with Hetumomab; type: in vivo, nude mice; conditions: cisplatin 0.3 mg/kg, day 28
Experimental: Specifically, the sphere cells of the human lung cancer cell line SPCA-1 were harvested and inoculated in nude mice at 2.5×10^5 cells/mouse. The mice were divided into following 5 groups, with 5 mice in each group: the PBS control group; the chemotherapy group (cisplatin 0.3 mg/kg); the high dose antibody Hetumomab group (40 mg/kg); the medium dose antibody Hetumomab group (10 mg/kg); and the low dose Hetumomab group (2.5 mg/kg). The antibody treatment was started on the second day after inoculation of lung cancer cells. The experimental groups and the control group were treated by intraperitoneal injection. The treatments were performed for 28 days after inoculation. The chemotherapeutic drug group was treated twice a week. The major and minor diameters of the subcutaneously transplanted tumors were measured twice a week. The tumor volume was calculated with the formula V=(π/6)×(major diameter×minor diameter×minor diameter). The change in tumor volume in each group was observed.

[2] = system: Bel7402-V13 transplanted tumor; assay: human liver cancer transplanted tumor treated with Hetumomab; type: in vivo, nude mice; conditions: cisplatin 0.3 mg/kg
Experimental: Bel7402-V13 sphere cells were inoculated subcutaneouly to nude mice at 30,000 cells/mouse. The nude mice were randomly divided into 6 groups (6 per group) as follows: the chemotherapy group (0.3 mg/kg cisplatin, 6 mice); the high dose antibody group (10 mg/kg, 6 mice); the high dose antibody+chemotherapy group (6 mice); the low dose antibody group (2.5 mg/kg, 6 mice); the low dose antibody+chemotherapy group (6 mice); and the PBS group (6 mice). The treatments were started the next day after the cells were inoculated, twice a week, and terminated after 5 weeks. The major and minor diameters of the subcutaneously transplanted tumor were measured twice a week. The tumor volume was calculated with the formula V=(π/6)×(major diameter×minor diameter×minor diameter), and the changes in tumor volume and growth rate of each group were observed. […] Tumor growth rate=(Vt−V0)/number of days, where Vt is the tumor volume at each measurement, and V0 is the tumor volume […] ([…]).

Bel7402-V13 cells = assay: CCK8 drug resistance (cisplatin IC50) of flow-sorted cells; type: cell-based, human
Experimental: In order to detect the drug resistance of Hetumomab^+ liver cancer cells, Hetumomab^+ cells, parental cells and Hetumomab^− cells obtained by flow sorting sphere cells of human liver cancer cells Bel7402-V13 were seeded at 5000 cells/well in a 96-well plate. Each group of cells was cultured in a complete medium containing 8 different concentrations, i.e., 0 μg/mL, 0.0625 μg/mL, 0.125 μg/mL, 0.25 μg/mL, 0.5 μg/mL, 1 μg/mL, 2 μg/mL, and 4 μg/mL, of cisplatin. The medium was changed once every 3 days, and after 7 days, the OD value was measured by the CCK8 method to determine the IC50 reflecting drug resistance. […] Therefore, Hetumomab^+ liver cancer cells have stronger chemotherapeutic drug resistance than the parental cells and Hetumomab^− cells.

SNU-5 transplanted tumor = assay: human gastric cancer transplanted tumor treated with Hetumomab; type: in vivo, nude mice; conditions: cisplatin 0.3 mg/kg, one month
Experimental: Specifically, the sphere cells of the human gastric cancer cell line SNU-5-V13 were harvested and inoculated in nude mice at 2.5×10^5 cells/mouse. The mice were divided into following 7 groups, with 8 mice in each group: the PBS control group; the mouse IgG control group; the chemotherapy group (cisplatin 0.3 mg/kg); the high dose antibody Hetumomab group (20 mg/kg); the low dose Hetumomab group (1.25 mg/kg); the high dose Hetumomab+chemotherapeutic drug group; and the low dose Hetumomab+chemotherapeutic drug group. The antibody treatment was started on the second day after inoculation of gastric cancer cells.
The experimental groups and the control group were treated by intraperitoneal injection. The treatments were performed for one month. The chemotherapeutic drug group was treated for 4 weeks, twice a week. The major and minor diameters of the subcutaneously transplanted tumor were measured twice a week. The tumor volume was calculated with the formula V=(π/6)×(major diameter×minor diameter×minor diameter). The change in tumor volume in each group was observed.

SPCA-1 cells [3] = assay: CCK8 drug resistance (cisplatin IC50) of flow-sorted cells; type: cell-based, human
Experimental: In order to detect the drug resistance of Hetumomab^+ lung cancer cells, Hetumomab^+ cells, parental cells and Hetumomab^− cells obtained by flow sorting sphere cells of human lung cancer cells SPCA-1 were seeded at 5000 cells/well in a 96-well plate. […] Therefore, Hetumomab^+ lung cancer cells have stronger chemotherapeutic drug resistance than the parental cells and Hetumomab^− cells.

Bel7402-V13 sphere cells = assay: inhibition of cisplatin resistance (CCK-8 IC50 after antibody treatment); type: cell-based, human; conditions: PBS-treated Bel7402-V13 sphere cells
Experimental: (§1) Drug resistance is one of the biological features of tumor stem cells. […] Each group of cells was cultured with a medium containing 9 different concentrations, i.e., 0, 0.0625, 0.125, 0.25, 0.5, 1, 2, 4, and 8 μg/mL, of cisplatin. The complete medium containing cisplatin was replaced once every 48 hours. After 5 days, CCK-8 reagent was added according to the instructions of CCK-8 kit. OD450 absorbance values were measured, and the IC50 values for each group were calculated.

SPCA-1 cells [4] = assay: as above; type: cell-based, human; conditions: SPCA-1 control group
Experimental: as §1

[5] = system: Bel7402-V13 transplanted tumor; assay: human liver cancer transplanted tumor treated with Hetuzumab H5L11; type: in vivo, nude mice; conditions: cisplatin 0.3 mg/kg, day 36
Experimental: Specifically, the sphere cells of the human liver cancer cell line Bel7402-V13 were harvested and inoculated subcutaneouly into nude mice at 30000 cells/mouse. […] The antibody treatments were started on the second day after inoculation of cancer cells. The experimental group and the control group were treated by intraperitoneal injection. The antibody treatments were performed for 36 days. The chemotherapeutic drug group was treated for 4 weeks, twice a week. The major and minor diameters of the subcutaneously transplanted tumor were measured twice a week. The tumor volume was calculated with the formula V=(π/6)×(major diameter×minor diameter×minor diameter). The change in tumor volume in each group was observed.

[6] = system: Hetumomab target antigen on cells; assay: cell ELISA affinity of humanized chain versions; type: binding, human; conditions: light chain mutant combined with heavy chain of Hetuximab
From the text: Based on the H1 heavy chain sequence, two other heavy chain mutants were designed as initial humanization: H2 and H3. The degree of humanization of these versions was in descending order. […] Since H1 was the most humanized version in which the framework regions were all humanized, H1 was finally determined as the preferred humanization molecular template.
Based on the L1 with fully humanized FR region, L2 and L3 were designed, and the degree of humanization of the three version was also in descending order. […] In order to find out which key amino acids were mutated during humanization, back mutations were performed, and nine different mutants (L4-L12) were prepared.
Therefore, L6, L11, and L12 were finally selected for optimization screening of the best light chain humanized version.
However, glycosylated isomers of Hetuzumab H1 heavy chain were confirmed by antibody sequence analysis and reductive electrophoresis analysis. In the analysis of H1 heavy chain expression products by electrophoresis, H1L6, H1L11, and H1L12 were all shown with weak sub-bands visible below the main band of the heavy chain. […] This may cause serious quality problems of uniformity, which is very unfavorable for drug development. […] H4 and H5 were combined with L11, respectively, and analyzed by electrophoresis after expression. […]

| Molecule | Tumor Volume Inhibition Rate (%) [1] [%] | tumor volume inhibition rate ([2]; at drug withdrawal after 5 weeks) [%] | tumor growth rate ([2]; month after drug withdrawal) [cm^3/day] | tumor volume inhibition rate ([2]; one month after drug withdrawal) [%] | IC50 of cisplatin (Bel7402-V13 cells; Bel7402-V13 Hetumomab+ cells, 7 days) [µg/mL] | IC50 of cisplatin (Bel7402-V13 cells; Bel7402-V13 Hetumomab− cells) [µg/mL] | IC50 of cisplatin (Bel7402-V13 cells; Bel7402-V13 Parental Cells) [µg/mL] | Tumor Volume Inhibition Rate (%) (SNU-5 transplanted tumor) | IC50 of cisplatin (SPCA-1 cells [3]; SPCA-1 Hetumomab+ cells) [µg/mL] | IC50 of cisplatin (SPCA-1 cells [3]; SPCA-1 Hetumomab− cells) [µg/mL] | IC50 of cisplatin (SPCA-1 cells [3]; SPCA-1 Parental Cells) [µg/mL] | IC50 of cisplatin, control group (Bel7402-V13 sphere cells) [µg/mL] | IC50 of cisplatin, control group (SPCA-1 cells [4]) [µg/mL] | Tumor Volume Inhibition Rate (%) [5] [%] | affinity by cellular ELISA [6] |
| --- | --- | --- | --- | --- | --- | --- | --- | --- | --- | --- | --- | --- | --- | --- | --- |
| N.N.[Cl][Pt][Cl] [cisplatin] | 24.91 | 83.5 | 0.154 | 48.6 | 0.739 | 0.313 | 0.502 | 33.16 | 0.707 | 0.180 | 0.513 | 0.9 | 0.351 | 14.52 | – |
| B1 | – | – | – | – | – | – | – | – | – | – | – | – | – | – | close to that of L6 |
